Data taken from a compilation of properties of binary mixtures (doi:10.1016/j.molliq.2020.113457).

Experiment: xn = mol fraction of the nth substance listed
Settings: 101 kPa

CCCC[n+]1ccn(C)c1.F[B-](F)(F)F + C=CC(=O)OC
x1 = 1
Settings	speed of sound [m/s]	viscosity [mPa·s]
293.15 K	1576.9	127.6
298.15 K	1565.8	98.9
308.15 K	1542.7	58.4
318.15 K	1518	38.72

C=CC(=O)OC + CCCC[n+]1ccn(C)c1.F[B-](F)(F)F
Settings	speed of sound [m/s]	viscosity [mPa·s]
293.15 K, x2 = 0	1204.7	0.502
293.15 K, x2 = 0.0694	1238.9	0.966
293.15 K, x2 = 0.1889	1296	3.853
293.15 K, x2 = 0.239	1318.8	6.24
293.15 K, x2 = 0.3354	1360.5	12.75
293.15 K, x2 = 0.4317	1399.7	21.82
293.15 K, x2 = 0.5005	1426	29.86
293.15 K, x2 = 0.5693	1451	39.21
293.15 K, x2 = 0.6532	1479.7	52.4
293.15 K, x2 = 0.737	1506.4	67.4
293.15 K, x2 = 0.7927	1523	78.5
293.15 K, x2 = 0.8484	1538.7	90.5
298.15 K, x2 = 0.0694	1218.7	0.725
298.15 K, x2 = 0.1387	1252.9	1.415
298.15 K, x2 = 0.1889	1276.8	2.577
298.15 K, x2 = 0.239	1300	4.295
298.15 K, x2 = 0.3354	1342.7	9.16
298.15 K, x2 = 0.4317	1382.7	16.07
298.15 K, x2 = 0.5005	1409.6	22.26
298.15 K, x2 = 0.5693	1435.3	29.5
298.15 K, x2 = 0.6532	1464.7	39.74
298.15 K, x2 = 0.737	1492.2	51.5
298.15 K, x2 = 0.7927	1509.3	60.2
298.15 K, x2 = 0.8484	1525.6	69.6
298.15 K, x2 = 0.9242	1546.4	83.5
303.15 K, x2 = 0	1162.3	0.428
303.15 K, x2 = 0.0694	1198.4	0.555
303.15 K, x2 = 0.1387	1233.4	–
303.15 K, x2 = 0.1889	1257.7	1.493
303.15 K, x2 = 0.239	1281.1	2.654
303.15 K, x2 = 0.5005	1393.8	16.05
303.15 K, x2 = 0.5693	1420.5	21.63
303.15 K, x2 = 0.6532	1451.2	29.58
303.15 K, x2 = 0.737	1479.5	38.8
303.15 K, x2 = 0.7927	1496.9	45.62
303.15 K, x2 = 0.8484	1514	53
303.15 K, x2 = 0.9242	1534.4	63.9
308.15 K, x2 = 0	1139.1	0.392
308.15 K, x2 = 0.0694	1176.1	0.448
308.15 K, x2 = 0.1387	1211.5	–
308.15 K, x2 = 0.1889	1236.2	–
308.15 K, x2 = 0.239	1260.5	–
308.15 K, x2 = 0.3354	1305.3	3.796
308.15 K, x2 = 0.4317	1347.7	7.6
308.15 K, x2 = 0.5005	1376.1	11.15
308.15 K, x2 = 0.5693	1404.1	15.41
308.15 K, x2 = 0.6532	1435.8	21.55
308.15 K, x2 = 0.737	1465.1	28.73
308.15 K, x2 = 0.7927	1483.3	34.08
308.15 K, x2 = 0.9242	1521	48.5
313.15 K, x2 = 0.0694	1155.4	0.378
313.15 K, x2 = 0.1889	1216.6	–
313.15 K, x2 = 0.3354	1286.1	2.165
313.15 K, x2 = 0.4317	1329.6	5.02
313.15 K, x2 = 0.5005	1359.4	7.79
313.15 K, x2 = 0.5693	1388.1	11.15
313.15 K, x2 = 0.6532	1420.6	16.05
313.15 K, x2 = 0.737	1452.4	21.85
313.15 K, x2 = 0.7927	1471.1	26.2
313.15 K, x2 = 0.8484	1488.1	30.93
313.15 K, x2 = 0.9242	1510.3	38.01
318.15 K, x2 = 0.0694	1134.5	0.355
318.15 K, x2 = 0.1387	1170.8	–
318.15 K, x2 = 0.1889	1195.7	–
318.15 K, x2 = 0.239	1220	–
318.15 K, x2 = 0.4317	1310.6	3.27
318.15 K, x2 = 0.5005	1341.6	5.53
318.15 K, x2 = 0.5693	1371.6	8.34
318.15 K, x2 = 0.737	1437.5	17.48
318.15 K, x2 = 0.7927	1457.2	21.23
318.15 K, x2 = 0.8484	1475.3	25.34
